ChEMBL document CHEMBL1137137, “A novel series of 2-pyridyl-containing compounds as lysophosphatidic acid receptor antagonists: development of a nonhydrolyzable LPA3 receptor-selective antagonist” (Bioorg Med Chem Lett, 2004)
pIC50, pKi: −log10 of the molar value.

Columns and labels:
[1] = target: T1, Lysophosphatidic acid receptor 1 (Homo sapiens, UniProt Q92633); assay: Inhibitory concentration against Lysophosphatidic acid 1 (LPA1) receptor
[2] = target: T2, Lysophosphatidic acid receptor 3 (Homo sapiens, UniProt Q9UBY5); assay: Antagonist activity at Lysophosphatidic acid 3 (LPA3) receptor
T2 sequence (Q9UBY5 whole entry): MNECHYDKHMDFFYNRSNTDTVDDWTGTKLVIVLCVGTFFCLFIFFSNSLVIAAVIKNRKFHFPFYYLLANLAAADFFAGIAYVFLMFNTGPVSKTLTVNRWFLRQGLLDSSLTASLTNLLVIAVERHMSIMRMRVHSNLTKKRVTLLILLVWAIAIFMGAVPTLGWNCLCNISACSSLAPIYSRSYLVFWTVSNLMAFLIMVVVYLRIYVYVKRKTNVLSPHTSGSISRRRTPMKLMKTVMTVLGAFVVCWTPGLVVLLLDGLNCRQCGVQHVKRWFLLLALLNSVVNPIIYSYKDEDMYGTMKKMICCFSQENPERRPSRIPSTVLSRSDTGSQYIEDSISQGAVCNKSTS

[3] = target: T1, Lysophosphatidic acid receptor 1; assay: Binding affinity towards Lysophosphatidic acid 1 (LPA1) receptor

T1 sequence (Q92633 whole entry): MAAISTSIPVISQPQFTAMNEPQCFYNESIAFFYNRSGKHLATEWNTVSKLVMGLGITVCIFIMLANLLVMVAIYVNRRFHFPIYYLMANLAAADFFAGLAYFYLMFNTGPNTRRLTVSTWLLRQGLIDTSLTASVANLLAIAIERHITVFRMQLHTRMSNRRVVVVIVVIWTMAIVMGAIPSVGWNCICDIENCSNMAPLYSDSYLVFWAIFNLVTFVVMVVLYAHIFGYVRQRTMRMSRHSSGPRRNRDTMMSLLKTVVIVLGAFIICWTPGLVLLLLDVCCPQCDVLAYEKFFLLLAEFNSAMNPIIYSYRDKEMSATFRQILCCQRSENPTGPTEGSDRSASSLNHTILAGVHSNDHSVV

Row | SMILES | pIC50 [1] | pIC50 [2] | pKi [3]
1 | CCCCCCCC/C=C\CCCCCCCC(=O)N[C@@H](Cc1ccc(OCc2ccccc2)cc1)CC(O)P(=O)(O)O (stereo partly specified) | 5.37 | 6.63 | 
2 | CCCCCCCC/C=C\CCCCCCCC(=O)N[C@H](CCP(=O)(O)O)Cc1ccc(OCc2ccccn2)cc1 | < 5.00 | < 5.00 | 
3 | CCCCCCCC/C=C\CCCCCCCC(=O)N[C@H](COP(=O)(O)O)Cc1ccc(OCc2ncc(C)c(OC)c2C)cc1 | 5.43 | 6.25 | 
4 | CCCCCCCC/C=C\CCCCCCCC(=O)N[C@@H](CCP(=O)(O)O)Cc1ccc(OCc2ccccn2)cc1 | < 5.00 | < 5.00 | 
5 | CCCCCCCC/C=C\CCCCCCCC(=O)N[C@H](COP(=O)(O)O)Cc1ccc(OCc2cc(OC)c3ccccc3n2)cc1 | < 5.00 | 5.59 | 
6 | CCCCCCCC/C=C\CCCCCCCC(=O)N[C@@H](COP(=O)(O)O)Cc1ccc(OCc2cc(OCCOC)ccn2)cc1 | 6.94 | 6.37 | 7.46
7 | CCCCCCCC/C=C\CCCCCCCC(=O)N[C@@H](CCP(=O)(O)O)Cc1ccc(OCc2ncc(C)c(OC)c2C)cc1 | < 5.00 | 6.82 | 
8 | CCCCCCCC/C=C\CCCCCCCC(=O)N[C@@H](COP(=O)(O)O)Cc1ccc(OCc2cc(OCC)ccn2)cc1 | 6.84 | 7.41 | 7.59
9 | CCCCCCCC/C=C\CCCCCCCC(=O)N[C@@H](COP(=O)(O)O)Cc1ccc(OCc2cc(OCC(F)(F)F)ccn2)cc1 | 7.08 | 7.32 | 7.72
10 | CCCCCCCC/C=C\CCCCCCCC(=O)N[C@@H](COP(=O)(O)O)Cc1ccc(OCc2cccnc2)cc1 | 6.00 | 5.77 | 
11 | CCCCCCCC/C=C\CCCCCCCC(=O)N[C@@H](COP(=O)(O)O)Cc1ccc(OCc2cccc(OC)n2)cc1 | 5.55 | 6.34 | 
12 | CCCCCCCC/C=C\CCCCCCCC(=O)N[C@@H](COP(=O)(O)O)Cc1ccc(OCc2cc(OC)ccn2)cc1 | 5.20 | 6.99 | 
13 | CCCCCCCC/C=C\CCCCCCCC(=O)N[C@@H](COP(=O)(O)O)Cc1ccc(OCc2cc(OCCC)ccn2)cc1 | 6.85 | 5.78 | 7.19
14 | CCCCCCCC/C=C\CCCCCCCC(=O)N[C@H](COP(=O)(O)O)Cc1ccc(OCc2ccccn2)cc1 |  | 6.03 | 
15 | CCCCCCCCCCCCCCCC(=O)N[C@H](CCP(=O)(O)O)Cc1ccc(OCc2ccccn2)cc1 | < 5.00 | 5.98 | 
16 | CCCCCCCC/C=C\CCCCCCCC(=O)N[C@@H](COP(=O)(O)O)Cc1ccc(OCc2ccc3ccccc3n2)cc1 | 5.84 | 6.27 | 
17 | CCCCCCCC/C=C\CCCCCCCC(=O)N[C@H](COP(=O)(O)O)Cc1ccc(OCc2ccncc2)cc1 | < 5.00 | 5.16 | 
18 | CCCCCCCC/C=C\CCCCCCCC(=O)N[C@@H](COP(=O)(O)O)Cc1ccc(OCc2ccncc2)cc1 | 6.13 | 5.68 | 
19 | CCCCCCCC/C=C\CCCCCCCC(=O)N[C@H](COP(=O)(O)O)Cc1ccc(OCc2cccnc2)cc1 | 5.35 | 5.21 | 
20 | CCCCCCCC/C=C\CCCCCCCC(=O)N[C@@H](COP(=O)(O)O)Cc1ccc(OCc2cc(OC)c3ccccc3n2)cc1 | 6.02 | 5.94 | 
21 | CCCCCCCC/C=C\CCCCCCCC(=O)N[C@@H](COP(=O)(O)O)Cc1ccc(OCc2ncc(C)c(OC)c2C)cc1 | 7.21 | 7.41 | 7.55
22 | CCCCCCCC/C=C\CCCCCCCC(=O)N[C@H](CCP(=O)(O)O)Cc1ccc(OCc2ncc(C)c(OC)c2C)cc1 | < 5.00 | 5.40 | 
23 | CCCCCCCC/C=C\CCCCCCCC(=O)N[C@@H](COP(=O)(O)O)Cc1ccc(OCc2ccccn2)cc1 |  | 6.76 | 
24 | CCCCCCCC/C=C\CCCCCCCC(=O)N[C@H](COP(=O)(O)O)Cc1ccc(OCc2cccc(OC)n2)cc1 | < 5.00 | 5.96 | 
